Source: paper PMC8622623, “Histamine H3 Receptor Ligands—KSK-59 and KSK-73—Reduce Body Weight Gain in a Rat Model of Excessive Eating” (Pharmaceuticals, 2021)
Blank lines part the entries; values can stand above or below the compound they belong to.

Columns and labels:
female Wistar rats = assay: Visceral illness via kaolin intake (pica behavior); type: in vivo; conditions: single i.p., 24 h; vs vehicle control
Description: The method was based on the works by Takeda et al. and Yamamoto et al. with minor modification. The experiment lasted for five days. In addition to free access to feed, animals had also free access to a white kaolin. For the first few days, the animals were accustomed to the presence of kaolin in their cages. […] Moreover, animals were weighed before the compounds administration and 24 h after.

rat = conditions: i.p., no reference given; cited from earlier work
in vitro = conditions: PAMPA, pH 7.4
Description: The reference compounds, well-permeable caffeine and low-permeable norfloxacin were obtained from Sigma-Aldrich (St. Louis, MO, USA). Used for this study, pre-coated PAMPA Plate System Gentest™ was provided by Corning (Tewksbury, MA, USA). The system consisted of 96-well receiver filter plate pre-coated with structured layers of phospholipids and a donor microplate. The assay was performed as described previously. […] After 5 h of incubation at RT° the UPLC-MS spectrometry (Waters ACQUITY™ TQD system with the TQ Detector, Waters, Milford, MA, USA) method was used to estimate the quantity of compounds that penetrated from donor to acceptor wells. The permeability coefficients (Pe, cm/s) were calculated using the formulas provided by Corning.

mice fed high fat diet = tested on: mice fed high fat diet; set-up: method as in PMID 15833055, PMID 15447739; conditions: mice fed high fat diet ref 4, 16; cited from earlier work
laboratory animals = tested on: laboratory animals; set-up: method as in PMID 33261900; conditions: laboratory animals ref 12; cited from earlier work

Structure (SMILES): O=S(=O)([O-])[O-].[Cu+2] [CuSO4, reference compound]
- calorie intake (pica model) (female Wistar rats): reduced caloric intake
- water intake (pica model) (female Wistar rats): drank less water
- LD50 (rat): 18 mg/kg

- Papp at 5 h, 200 µM (in vitro): 0.056 ± 0.01 ×10⁻⁶ cm/s
Structure (SMILES): CCn1cc(C(=O)O)c(=O)c2cc(F)c(N3CCNCC3)cc21 [NFX, norfloxacin]

Structure (SMILES): CN(C)[C@@H]1CCN(CCCOc2ccc(-c3ccc(C#N)cc3)cc2)C1 [Compound A-331440]
- body weight (mice fed high fat diet): caused weight loss
- insulin tolerance (mice fed high fat diet): normalized insulin tolerance
- leptin levels (mice fed high fat diet): lowered leptin levels

Structure (SMILES): N#Cc1ccc(-c2ccc(OCCCN3CCN(c4ccncc4)CC3)cc2)cc1 [KSK-94]
- kcal intake (laboratory animals): reduced kcal intake
- plasma triglyceride and total cholesterol levels (laboratory animals): lowering plasma triglyceride and total cholesterol levels
- weight gain (laboratory animals): strongly prevented weight gain

Structure (SMILES): Cn1c(=O)c2c(ncn2C)n(C)c1=O [CFN, caffeine]
- Papp at 5 h, 200 µM (in vitro): 12.2 ± 0.94 ×10⁻⁶ cm/s
